Results from US11987579B2 (Duke University, priority 2018, dated 2024).
Like-named read-outs stand apart in the source and are kept apart here. Values belong to the molecule of their own block, whether it stands above or below them.

Tests used:
Fzd1-GFP = test: Frizzled 1-GFP (Fzd1-GFP) internalization assay; format: cell-based; details: 12.5 μM, 6 h, 37° C., U20S cells stably expressing Fzd1-GFP, confocal microscopy, vs DMSO
Experimental: The Frizzled 1-GFP (Fzd1-GFP) assay was performed following a procedure similar to that previously reported (Chen et al., Biochemistry 2009, 48, 10267). Briefly, U20S cells stably expressing Fzd1-GFP were plated in con local dishes and incubated at 37° C. with 5% CO2. After 24 hours the cells were treated with 12.5 μM of test compound (dissolved in DMSO) or DMSO alone in media as a control for 6 hours at 37° C. and then fixed with 4% paraformaldehyde. The cells were then examined by microscopy using an LSM 510-Meta confocal microscope (Carl Zeiss, Thornwood, N.Y., USA) equipped with 40× and 100×apo chromat objectives. GFP was excited using a 488-nm argon laser line. Images were processed using the LSM software Image Browser.

pAMPK = test: Evaluation of phospho-AMPK levels by Western blot; format: cell-based; details: CCD841Co cells, whole cell lysate, vs DMSO control
Experimental: 12-well plates were incubated with 250 μL poly-D-lysine solution (Sigma, catalog number P6407) at 10 μg/mL for 30 minutes at room, temperature, the poly-D-lysine solution was removed, and the wells washed twice with 500 μL distilled water. Colonic epithelial CCD841Co cells were cultured in MEM medium plus 1 mM sodium pyruvate (Invitrogen, catalog number 11360070), lx MEM Non-Essential Amino Acids (Gibco catalog number 11140), 10% FBS, and 100 U/ml penicillinstreptomycin. 0.27 million CCD841Co cells per well were plated in culture medium in the poly-Dlysine coated 12-well plates and allowed to attach overnight at 37° C. in a 5% CO2 incubator. The next morning, the media was replaced with DMSO vehicle in cell media, DK419 or niclosamidein DMSO diluted to the indicated concentration with DMEM medium (Sigma, catalog number D5030) supplemented with 2 mM sodium pyruvate and 2 mM L-glutamine (Invitrogen, catalog number 25030081). […] After 30 minutes treatment, the media was removed and the cells were lysed with 120 μL 1×Laemmii sample buffer. Immunoblots of the cell lysates using antibodies to phospho-AMPK (pAMPK) (Cell Signaling Technology, catalog number 2535) and AMPK (Cell Signaling Technology, catalog number 2532) was used to detect phosphorylated AMPK ([…]) levels and total AMPK levels, respectively. Antibodies to β-actin were used as loading controls.

SW480 = test: Inhibition of cell proliferation by MTS assay, SW480; format: cell-based; details: Homo sapiens; SW480, MTS assay at 72 hr
Experimental: Colon cancer cell lines SW948, HT-29, HCT116, CRC240, SW480, and DLD-1 were used in the cell proliferation assay. All cell lines, except CRC240, were from ATCC. CRC240, a colorectal cancer patient derived xenograft (PDX) cell line, was obtained from the Hsu lab (Duke University). Generation of CRC240 cell line was previously reported. SW948 cells were cultured in Leibovitz's medium (Gibco, catalog number 21083-027). HT-29 and HCT116 cells were cultured in McCoy's 5A medium (Gibco, catalog number 16600-082). SW480 cells were cultured in MEM medium. CRC240 and DLD-1 cells were cultured in RPMI medium (Gibco, catalog number 11875-093). All media were supplemented with 10% FBS and 100 U/ml penicillin-streptomycin. […] IC50 values calculated using Graphpad Prism.

[1] = Pharmacokinetic analysis of DK419 in mouse plasma after oral dose; format: in vivo, NOD/SCID mice; details: mice; for Cmax: read-out: Cmax (second line)
Experimental: DK419 was dissolved in 10% N-Methyl pyrrolidinone (Sigma, catalog number 328634) and 90% PEG300 (Sigma, catalog number 20237) at 0.2 mg/mL, and dosed orally to NOD/SCID mice (n=4) at 1 mg/kg. Blood samples (20 μL) were collected serially from tail vein into vials containing 1 μL of 1000 U/mL heparin at the following time-points: pre-dose, 0.25, 0.5, 1, 2, 4, 8, 24, 48, and 72 h after drug administration. After centrifugation at 1300 g for 5 min at room temperature, plasma was separated and stored at −80° C. until the analysis.
Quantification of DK419 in mouse plasma was started by vigorous agitation of 4 μL sample, 10 μL of 20 ng/mL DK4-106-3 (in-house made internal standard analog), 20 μL of water, and 100 μL of ethyl-acetate. After centrifugation at 16,000 g for 5 min at room temperature, 80 μL of organic (upper) layer was dried under nitrogen stream, residue reconstituted with a mixture of 50% mobile phase A (10 mM ammonium acetate, 0.1% formic acid) and 50% mobile phase B (methanol), and 5 μL injected into LC/MS/MS system. Analysis was performed on Shimadzu series 20A LC/Applied Biosystems/SCIEX API 4000 QTrap MS/MS instrument. Column: Agilent Eclipse 4.6×50 ram, 1.8 μm at 50° C. Elution gradient: 0-2 min 50-90% B, 2-2.5 min 90% B, 2.5-2.7 min, 90-50% B; flow […]. MS/MS transitions followed: 405.8/218.9 (DK419) and 331.8/311.8 (DK4-106-3; int. std.). Run time: 5 min. Calibration samples were prepared by adding pure DK419 to pooled mouse plasma in 2.4 ng/mL (LLOQ)-1000 ng/mL range and analyzed alongside the PK study samples. The calibration curve was linear (r=0.999).

[2] = niclosamide 200 mg/kg oral, mice, non-compartmental, cited from earlier work
HCT116 cells = details: 0.5 and 1.5 μM; cited from earlier work
[3] = DK419 1 mg/kg oral, compartmental
[4] = DK419 1 mg/kg oral, non-compartmental

- Fzd1-GFP receptor internalization (green fluorescent internal puncta) (Fzd1-GFP): robust punctate pattern
- IC50 (SW480): 320 nM
- AUCinf [1, 3]: 16300 ng·h/mL (per kg BW)
- AUCinf/DOSE [1, 3]: 16.3 µg·h/mL (per mg)
- t1/2-absorption [1, 3]: 2.0 h
- t1/2-elimination [1, 3]: 10.8 h
- Tmax ([1]; DK419 1 mg/kg oral, compartmental, 1st order extrav. input, 1st order elimination): 5.85 h
- Cmax [1, 3]: 1790 nM
- AUCinf [1, 4]: 16900 ng·h/mL (per kg BW)
- AUCinf/DOSE [1, 4]: 16.9 µg·h/mL (per mg)
- CL/F [1, 4]: 0.06 L/h (per kg BW)
- MRT [1, 4]: 15.8 h
- t1/2-elimination [1, 4]: 9.2 h
- Tmax ([1]; DK419 1 mg/kg oral, non-compartmental extravascular input): 4.5 h
- AUC0-LAST ([1]; DK419 1 mg/kg oral, non-compartmental, 0-72 h): 16800 ng·h/mL (per kg BW)
- Cmax [1, 4]: 1840 nM
- CL/F ([1]; NOD/SCID, mouse, plasma, DK419 1 mg/kg oral, compartmental, read-out: CL/F (converted)): 1 mL/min/kg
- time for which plasma levels were sustained ([1]; single 1 mg/kg oral dose): more than 24 hours
- plasma concentration at 24 hours relative to its IC50 in the TOPFlash and MTS assays ([1]; single 1 mg/kg oral dose, 24 hours): 3 fold
SMILES: O=C(Nc1ccc(C(F)(F)F)cc1)c1cc(Cl)cc2nc(C(F)(F)F)[nH]c12 [DK419, 6-chloro-2-(trifluoromethyl)-N-(4-(trifluoromethyl)phenyl)-1H-benzo[d]imidazole-4-carboxamide]
- pAMPK levels by Western blot (pAMPK): increased the levels of pAMPK

- Fzd1-GFP receptor internalization (green fluorescent internal puncta) (Fzd1-GFP): robust punctate pattern
- IC50 (SW480): 740 nM
SMILES: O=C(Nc1ccc([N+](=O)[O-])cc1Cl)c1cc(Cl)ccc1O [Niclosamide, reference compound]
- pAMPK levels by Western blot (pAMPK): increased pAMPK levels
- AUC0-LAST ([2]; 0-24 h): 1010 ng·h/mL (per kg BW)
- AUCinf [2]: 1020 ng·h/mL (per kg BW)
- MRT [2]: 6.8 h
- Cmax ([2]; read-out: Cmax (second line)): 2730 nM
- oxygen consumption rate in HCT116 cells (HCT116 cells): caused oxygen consumption rate to increase
